Assays:
[1] = buffer, pH 2
[2] = acid lability (half life) of the 2′-orthoester protecting group on uridine; settings: pH 2, 25° C.; after ester hydrolysis of the ACE orthoester

half life [1]: < 45 s | times more labile (than 2′-ACE-uridine) [2]: 10 times
Structure (SMILES): O=c1ccn(C2OC(CO)C(O)C2OC(OCCO)OCCO)c(=O)[nH]1 (centres unmarked) [2′-modified uridine]

Reference: patent US6590093B1, “Orthoester protecting groups” (Dharmacon, Inc., priority 1998, dated 2003)
